As usually defined, the logP is a log measure of how a compound divides between an organic and an aqueous phase. A higher logP goes with higher lipophilicity.

The subject of one data set is Spodoptera frugiperda. Kind of data set: Spodoptera frugiperda test (spray treatment). It counts as in vivo. To be noted: for Kill rate in % after 7d: active compound concentration 500 g/ha, sprayed corn leaf disks (Zea mays), caterpillars. The protocol:
Spodoptera frugiperda Test (Spray Treatment) [table] To produce a suitable preparation of active compound, 1 part by weight of active compound is mixed with the stated amounts of solvents and emulsifier, and the concentrate is diluted with emulsifier-containing water to the desired concentration. Disks of corn leaves (Zea mays) are sprayed with an active compound preparation of the desired concentration and, after drying, populated with caterpillars of the armyworm (Spodoptera frugiperda). After the desired period of time, the effect in % is determined. 100% means that all caterpillars have been killed; 0% means that none of the caterpillars have been killed.

A short description of a further data set: log P (pH 2.3). It counts as physicochemical.
For another data set, the system named is Tetranychus urticae. Kind of data set: Tetranychus test; OP-resistant (TETRUR spray treatment). To be noted: active compound concentration 100 g/ha, sprayed bean leaf disks (Phaseolus vulgaris), all stages of spider mite. It counts as in vivo. How it is done: Tetranychus Test; OP-Resistant (TETRUR Spray Treatment)
To produce a suitable preparation of active compound, 1 part by weight of active compound is mixed with the stated amounts of solvents and emulsifier, and the concentrate is diluted with emulsifier-containing water to the desired concentration.
Disks of bean leaves (Phaseolus vulgaris) which are infested by all stages of the greenhouse red spider mite (Tetranychus urticae) are sprayed with an active compound preparation of the desired concentration.
After the desired period of time, the effect in % is determined. 100% means that all spider mites have been killed; 0% means that none of the spider mites have been killed.

Regarding `COc1c(Cl)cc(OCC=C(Cl)Cl)cc1C1=NOC(CCCOc2ccc3c(c2)CCCC3=O)C1` (stereo not shown), the “Kill rate in % after 7d” value in the data set on Spodoptera frugiperda is recorded as 100%.

For the compound `CCn1nnc(-c2ccc(OCCCC3CC(c4cc(OCC=C(Cl)Cl)cc(Cl)c4OC)=NO3)cc2)n1` (stereo not shown), the “Kill rate in % after 7d” value with Spodoptera frugiperda came out at 100%.

As to `COc1c(Cl)cc(OCC=C(Cl)Cl)cc1C1=NC(CO)CO1` (stereo not shown) [{2-[3-chloro-5-(3,3-dichloroallyloxy)-2-methoxyphenyl]-4,5-dihydrooxazol-4-yl}methanol], in “log P (pH 2.3)”, the log partition coefficient (logP) was 2.05.

As for `COc1c(Cl)cc(OCC=C(Cl)Cl)cc1C1=NOC(CCCOc2ccc(N3CCCC3=O)cc2)C1` (stereo not shown), the “Kill rate in % after 7d” value in the data set on Spodoptera frugiperda is given as 100%.

As to `COc1c(Cl)cc(OCC=C(Cl)Cl)cc1C(=O)NNC(=O)CCCOCc1ccccc1` [3-chloro-5-(3,3-dichloroallyloxy)-2-methoxybenzoic acid N′-(4-benzyloxybutyryl)hydrazide], the logP in the data set “log P (pH 2.3)” was 3.79.

With `COc1c(Cl)cc(OCC=C(Cl)Cl)cc1C1=NOC(CCCOc2cccc3c2OC(C)(C)C3)C1` (stereo not shown) [drawing 44], the “Kill rate in % after 7d” value with Spodoptera frugiperda is given as 100%.

As for `CO/N=C/c1ccc(OCCCC2CC(c3cc(OCC=C(Cl)Cl)cc(Cl)c3OC)=NO2)cc1` (stereo not shown), the “Kill rate in % after 7d” value in the data set on Spodoptera frugiperda is listed as 100%.

As to `COc1c(Cl)cc(OCC=C(Cl)Cl)cc1-c1nnc(CCCOCc2ccccc2)s1` [2-(3-benzyloxypropyl)-5-[3-chloro-5-(3,3-dichloroallyloxy)-2-methoxyphenyl]-[1,3,4]thiadiazole], in “log P (pH 2.3)”, the logP came to 5.67.

In the case of `CCn1nnc(-c2ccc(OCCCC3CC(c4cc(OCC=C(Cl)Cl)cc(Cl)c4OC)=NO3)cc2)n1` (racemic) [Example I-1], the “activity in Spodoptera frugiperda test” value in the data set on Spodoptera frugiperda (spray treatment, result in words) is “good activity”.

In the case of `COc1c(Cl)cc(OCC=C(Cl)Cl)cc1C1=NOC(CCCOc2cccc3c2OC(C)(C)C3)C1` (stereo not shown) [drawing 46], the “Kill rate in % after 7d” value with Tetranychus urticae is recorded as 90%.
